Reference: publication PMC5888952 (Toxicological Sciences, 2018)

What was measured:
[1] = test system: cryopreserved primary human hepatocytes (PHH) in 2Dsw culture; test: Repeated-dose cytotoxicity
[2] = test system: cryopreserved primary human hepatocytes (PHH) in 3D spheroid culture; test: Repeated-dose cytotoxicity; format: cell-based
[3] = after long-term exposure, chosen treatment regimen

Compound: COc1ccccc1Oc1c(NS(=O)(=O)c2ccc(C(C)(C)C)cc2)nc(-c2ncccn2)nc1OCCO [bosentan]
- sensitivity of PHH in 2Dsw compared with 3D spheroids ([1]; after 7 days (3 treatments)): higher
- sensitivity of PHH in 2Dsw compared with 3D spheroids ([1]; at 14 days (6 treatments)): equal sensitivity

Compound: Cc1c(C)c2c(c(C)c1O)CCC(C)(COc1ccc(CC3SC(=O)NC3=O)cc1)O2 (stereo not shown) [troglitazone]
- donors in which toxicity was identified at relevant concentrations ([2]; 3D spheroids, after 72 hours (single treatment), 3 donors tested): all 3 donors
- donors in which toxicity was indicated ([1]; 2Dsw culture, 3 donors tested): 1 of the 3 donors
- sensitivity of PHH in 2Dsw compared with 3D spheroids [1, 3]: substantially lower sensitivities

Compound: CCc1ccc(CCOc2ccc(CC3SC(=O)NC3=O)cc2)nc1 (stereo not shown) [pioglitazone]
- toxicity (ATP viability) ([2]; 3D spheroid culture, up to 14 days): non-toxic
- toxicity (ATP viability) ([1]; 2Dsw culture, up to 14 days): non-toxic

Compound: O=C(O)Cc1ccccc1Nc1c(Cl)cccc1Cl [diclofenac]
- sensitivity of PHH in 2Dsw compared with 3D spheroids [1, 3]: substantially lower sensitivities

Compound: O=c1[nH]c(=O)n([C@@H]2O[C@H](CO)[C@@H](O)[C@@H]2F)cc1I [fialuridine]
- EC50 (50% reduction in viability, ATP) ([1]; 2Dsw culture, any of the 3 PHH donors, up to 14 days repeated exposure): could not be attained
- sensitivity of PHH in 2Dsw compared with 3D spheroids [1, 3]: substantially lower sensitivities
